The subject of experiment [1] is Mycobacterium tuberculosis. Briefly: Antitubercular activity against isoniazid,streptomycin,rifampicin,ethambutol,para-aminosalicylate,prothionamide,capreomycin-resistant Mycobacterium tuberculosis clinical isolate 14862 assessed as bacterial growth inhibition incubated for 7 days by MABA assay. The format is functional. The conditions noted are these: clinical isolate 14862, 168 h, time 7 day.

Experiment [2] has as its system Mycobacterium tuberculosis. Briefly: Antitubercular activity against isoniazid,streptomycin,rifampicin,ethambutol, rifabutin, para-aminosalicylat, ofloxacin-resistant Mycobacterium tuberculosis clinical isolate 13946 assessed as inhibition of bacterial growth incubated for 7 days by MABA assay. The format is functional. The conditions noted are these: clinical isolate 13946, 168 h, time 7 day.

Converted amounts (≈) assume the structure as drawn.

For the molecule `O=C(OC1CCC(CN2CCN(c3cc(=O)c4cc(C(F)(F)F)cc([N+](=O)[O-])c4s3)CC2)CC1)c1ccccc1` (centres undefined), the MIC (as a rule, the least concentration at which growth counts as inhibited) in experiment [1] was found to be 0.162 µg/mL (≈ 0.281 µM); in experiment [2] it was 0.216 µg/mL (≈ 0.375 µM).

`CS(=O)(=O)OC1CCC(CN2CCN(c3cc(=O)c4cc(C(F)(F)F)cc([N+](=O)[O-])c4s3)CC2)CC1` (centres undefined): the figures for the MIC in experiment [1] and in experiment [2] were 0.001 µg/mL (≈ 0.00182 µM) and below 0.001 µg/mL, respectively.

Consider `CC(=O)OC1CCC(CN2CCN(c3cc(=O)c4cc(C(F)(F)F)cc([N+](=O)[O-])c4s3)CC2)CC1` (centres undefined), for which the MIC in experiment [1] and in experiment [2] was 0.062 µg/mL (≈ 0.121 µM) in each case.

For the molecule `O=c1cc(N2CCN(CC3CCC(OS(=O)(=O)c4ccccc4)CC3)CC2)sc2c([N+](=O)[O-])cc(C(F)(F)F)cc12` (centres undefined), the values for the MIC in experiment [1] and in experiment [2] were 0.002 µg/mL (≈ 0.00327 µM) and 0.001 µg/mL (≈ 0.00163 µM), respectively.

For the molecule `O=c1cc(N2CCN(CC3CCC(OS(=O)(=O)c4cccnc4)CC3)CC2)sc2c([N+](=O)[O-])cc(C(F)(F)F)cc12` (centres undefined), the MIC in experiment [1] and in experiment [2] was below 0.001 µg/mL each time.

For the molecule `NNC(=O)c1ccncc1` [ISONIAZID], the MIC in experiment [1] and in experiment [2] was above 10 µg/mL each time.

Regarding `CO[C@H]1/C=C/O[C@@]2(C)Oc3c(C)c(O)c4c(O)c(c(/C=N/N5CCN(C)CC5)c(O)c4c3C2=O)NC(=O)/C(C)=C\C=C\[C@H](C)[C@H](O)[C@@H](C)[C@@H](O)[C@@H](C)[C@H](OC(C)=O)[C@@H]1C` [RIFAMPIN], the MIC in experiment [1] and in experiment [2] was above 10 µg/mL each time.

These data come from ChEMBL document CHEMBL4825698, “Identification of novel benzothiopyranones with ester and amide motifs derived from active metabolite as promising leads against Mycobacterium tuberculosis” (Eur J Med Chem, 2021).
